Measurements taken from patent publication US20090047221A1 (NIPRI LIMITED, priority 2004, published 2009).

Test system: cancer cell line MDA-MB-468
Experiment: Combination index with known cancer drugs against proliferation (Calcusyn software)
Assay type: cell-based
Description: A combination index of less than 0.1 indicates very strong synergy; a combination index of 0.1 to 0.3 indicates strong synergism; a combination index of 0.3 to 0.7 indicates synergism; a combination index of 0.7 to 0.85 indicates moderate synergism; a combination index of 0.85 to 0.9 indicates slight synergism and a combination index of 0.9 to 1.1 indicates only very slight synergism, said combination being close to merely additive.
The combination index may be calculated using calcusyn software.
Evidence of synergy was determined by calculation of the combination index using Calcusyn software.
The MTT assay was used initially to determine the anti-proliferative activity of the test compounds. In the MTT assay a yellow thiazolyl blue tetrazolium bromide salt (MTT) is reduced, in metabolically active cells, to form insoluble purple formazan crystals which are solubilised by the addition of dimethyl sulphoxide (DMSO). Absorbance readings can then be determined spectrophotometrically and a relationship established between control untreated cells and drug treated cells enabling the quantification of anti-proliferative changes as a result of drug treatment (Mosmann, 1983).
Wells containing medium only were used as blanks. Following the attachment period, cells were treated with appropriate drug concentrations (20 μl added per well). 40 mg/ml stock drug solutions, in DMSO, were stored at −20° C. and on the day of drug treatment working solutions of 4 mg/ml were prepared in medium which was further diluted to achieve final drug dilution volumes of 20 μl. Initial screening was determined over a concentration range of 1-200 μg/ml. For potent compounds the assay was repeated over a narrower concentration range to determine accurate IC50 values. Cells were exposed to drug for 96 h continual exposure (37° C., 5% CO2). Following the 96 h incubation, 50 μl MTT solution (1 g MTT/500 ml PBS) was added per well and the plates were further incubated for 4 h (37° C., 5% CO2). After incubation the MTT and medium was removed from the wells and 100 μl DMSO added per well. Plates were agitated on an orbital mixer platform (Stuart Scientific) for 10 minutes. Absorbance was measured at 570 nm on a Biotrak II (Amersham Bioscience) plate reader. IC50 values were calculated comparing control and drug treated cells.

**Q.** What does the source list for `CC(C)CC(NC(=O)c1ccc2c(c1O)C(=O)OC(C)C2)C(=O)OC(C)(C)C` (mixture of isomers) [ALM-55, Leucine Tert-Butyl Ester Amide]?
**A.** Combination Index (Cisplatin 1 × 10^−2 mol/L, ALM compound 0.1 μg/ml): 0.003; Combination Index (Cisplatin 1 × 10^−2 mol/L, ALM compound 0.5 μg/ml): 0.009; Combination Index (Cisplatin 1 × 10^−2 mol/L, ALM compound 1.0 μg/ml): 0.023; Combination Index (Cisplatin 1 × 10^−2 mol/L, ALM compound 5.0 μg/ml): 0.11; Combination Index (Cisplatin 1 × 10^−3 mol/L, ALM compound 0.1 μg/ml): 0.031; Combination Index (Cisplatin 1 × 10^−3 mol/L, ALM compound 0.5 μg/ml): No; Combination Index (Cisplatin 1 × 10^−3 mol/L, ALM compound 1.0 μg/ml): No; Combination Index (Cisplatin 1 × 10^−3 mol/L, ALM compound 5.0 μg/ml): No; Combination Index (Cisplatin 1 × 10^−4 mol/L, ALM compound 0.1 μg/ml): No; Combination Index (Cisplatin 1 × 10^−4 mol/L, ALM compound 0.5 μg/ml): No; Combination Index (Cisplatin 1 × 10^−4 mol/L, ALM compound 1.0 μg/ml): No; Combination Index (Cisplatin 1 × 10^−4 mol/L, ALM compound 5.0 μg/ml): No; Combination Index (Cisplatin 1 × 10^−5 mol/L, ALM compound 0.1 μg/ml): No; Combination Index (Cisplatin 1 × 10^−5 mol/L, ALM compound 0.5 μg/ml): No; Combination Index (Cisplatin 1 × 10^−5 mol/L, ALM compound 1.0 μg/ml): No; Combination Index (Cisplatin 1 × 10^−5 mol/L, ALM compound 5.0 μg/ml): No; Combination Index (Cisplatin 1 × 10^−6 mol/L, ALM compound 0.1 μg/ml): No; Combination Index (Cisplatin 1 × 10^−6 mol/L, ALM compound 0.5 μg/ml): No; Combination Index (Cisplatin 1 × 10^−6 mol/L, ALM compound 1.0 μg/ml): No; Combination Index (Cisplatin 1 × 10^−6 mol/L, ALM compound 5.0 μg/ml): No; Combination Index (Cisplatin 1 × 10^−7 mol/L, ALM compound 0.1 μg/ml): 0.431; Combination Index (Cisplatin 1 × 10^−7 mol/L, ALM compound 0.5 μg/ml): No; Combination Index (Cisplatin 1 × 10^−7 mol/L, ALM compound 1.0 μg/ml): No; Combination Index (Cisplatin 1 × 10^−7 mol/L, ALM compound 5.0 μg/ml): No; Combination Index (Cisplatin 1 × 10^−8 mol/L, ALM compound 0.1 μg/ml): 0.155; Combination Index (Cisplatin 1 × 10^−8 mol/L, ALM compound 0.5 μg/ml): No; Combination Index (Cisplatin 1 × 10^−8 mol/L, ALM compound 1.0 μg/ml): No; Combination Index (Cisplatin 1 × 10^−8 mol/L, ALM compound 5.0 μg/ml): No; Combination Index (Cisplatin 1 × 10^−9 mol/L, ALM compound 0.1 μg/ml): 0.093; Combination Index (Cisplatin 1 × 10^−9 mol/L, ALM compound 0.5 μg/ml): 0.531; Combination Index (Cisplatin 1 × 10^−9 mol/L, ALM compound 1.0 μg/ml): No; Combination Index (Cisplatin 1 × 10^−9 mol/L, ALM compound 5.0 μg/ml): No; Combination Index (Doxorubicin 1 × 10^−4 mol/L, ALM compound 0.1 μg/ml): No; Combination Index (Doxorubicin 1 × 10^−4 mol/L, ALM compound 0.5 μg/ml): No; Combination Index (Doxorubicin 1 × 10^−4 mol/L, ALM compound 1.0 μg/ml): No; Combination Index (Doxorubicin 1 × 10^−4 mol/L, ALM compound 5.0 μg/ml): No; Combination Index (Doxorubicin 1 × 10^−5 mol/L, ALM compound 0.1 μg/ml): 0.284; Combination Index (Doxorubicin 1 × 10^−5 mol/L, ALM compound 0.5 μg/ml): No; Combination Index (Doxorubicin 1 × 10^−5 mol/L, ALM compound 1.0 μg/ml): 0.344; Combination Index (Doxorubicin 1 × 10^−5 mol/L, ALM compound 5.0 μg/ml): 0.969; Combination Index (Etoposide 1 × 10^−4 mol/L, ALM compound 0.1 μg/ml): 0.312; Combination Index (Etoposide 1 × 10^−4 mol/L, ALM compound 0.5 μg/ml): 0.142; Combination Index (Etoposide 1 × 10^−4 mol/L, ALM compound 1.0 μg/ml): 0.473; Combination Index (Etoposide 1 × 10^−4 mol/L, ALM compound 5.0 μg/ml): 0.335; Combination Index (Etoposide 1 × 10^−5 mol/L, ALM compound 0.1 μg/ml): No; Combination Index (Etoposide 1 × 10^−5 mol/L, ALM compound 0.5 μg/ml): 1.136; Combination Index (Etoposide 1 × 10^−5 mol/L, ALM compound 1.0 μg/ml): No; Combination Index (Etoposide 1 × 10^−5 mol/L, ALM compound 5.0 μg/ml): No; Combination Index (Etoposide 1 × 10^−6 mol/L, ALM compound 0.1 μg/ml): No; Combination Index (Etoposide 1 × 10^−6 mol/L, ALM compound 0.5 μg/ml): No; Combination Index (Etoposide 1 × 10^−6 mol/L, ALM compound 1.0 μg/ml): No; Combination Index (Etoposide 1 × 10^−6 mol/L, ALM compound 5.0 μg/ml): No; Combination Index (Etoposide 1 × 10^−7 mol/L, ALM compound 0.1 μg/ml): No; Combination Index (Etoposide 1 × 10^−7 mol/L, ALM compound 0.5 μg/ml): No; Combination Index (Etoposide 1 × 10^−7 mol/L, ALM compound 1.0 μg/ml): No; Combination Index (Etoposide 1 × 10^−7 mol/L, ALM compound 5.0 μg/ml): No; Combination Index (Etoposide 1 × 10^−8 mol/L, ALM compound 0.1 μg/ml): 0.414; Combination Index (Etoposide 1 × 10^−8 mol/L, ALM compound 0.5 μg/ml): 0.910; Combination Index (Etoposide 1 × 10^−8 mol/L, ALM compound 1.0 μg/ml): No; Combination Index (Etoposide 1 × 10^−8 mol/L, ALM compound 5.0 μg/ml): No; Combination Index (Etoposide 1 × 10^−9 mol/L, ALM compound 0.1 μg/ml): 0.318; Combination Index (Etoposide 1 × 10^−9 mol/L, ALM compound 0.5 μg/ml): 0.829; Combination Index (Etoposide 1 × 10^−9 mol/L, ALM compound 1.0 μg/ml): No; Combination Index (Etoposide 1 × 10^−9 mol/L, ALM compound 5.0 μg/ml): No; Combination Index (Etoposide 1 × 10^−10 mol/L, ALM compound 0.1 μg/ml): 0.267; Combination Index (Etoposide 1 × 10^−10 mol/L, ALM compound 0.5 μg/ml): 0.494; Combination Index (Etoposide 1 × 10^−10 mol/L, ALM compound 1.0 μg/ml): No; Combination Index (Etoposide 1 × 10^−10 mol/L, ALM compound 5.0 μg/ml): No; Combination Index (Irinotecan 1 × 10^−3 mol/L, ALM compound 0.1 μg/ml): 1.133; Combination Index (Irinotecan 1 × 10^−3 mol/L, ALM compound 0.5 μg/ml): 0.604; Combination Index (Irinotecan 1 × 10^−3 mol/L, ALM compound 1.0 μg/ml): 0.531; Combination Index (Irinotecan 1 × 10^−3 mol/L, ALM compound 5.0 μg/ml): 0.611; Combination Index (Irinotecan 1 × 10^−4 mol/L, ALM compound 0.1 μg/ml): 0.205; Combination Index (Irinotecan 1 × 10^−4 mol/L, ALM compound 0.5 μg/ml): 0.136; Combination Index (Irinotecan 1 × 10^−4 mol/L, ALM compound 1.0 μg/ml): 0.053; Combination Index (Irinotecan 1 × 10^−4 mol/L, ALM compound 5.0 μg/ml): 0.128; Combination Index (Irinotecan 1 × 10^−5 mol/L, ALM compound 0.1 μg/ml): No; Combination Index (Irinotecan 1 × 10^−5 mol/L, ALM compound 0.5 μg/ml): 0.682; Combination Index (Irinotecan 1 × 10^−5 mol/L, ALM compound 1.0 μg/ml): No; Combination Index (Irinotecan 1 × 10^−5 mol/L, ALM compound 5.0 μg/ml): No; Combination Index (Irinotecan 1 × 10^−6 mol/L, ALM compound 0.1 μg/ml): No; Combination Index (Irinotecan 1 × 10^−6 mol/L, ALM compound 0.5 μg/ml): No; Combination Index (Irinotecan 1 × 10^−6 mol/L, ALM compound 1.0 μg/ml): No; Combination Index (Irinotecan 1 × 10^−6 mol/L, ALM compound 5.0 μg/ml): No; Combination Index (Irinotecan 1 × 10^−7 mol/L, ALM compound 0.1 μg/ml): No; Combination Index (Irinotecan 1 × 10^−7 mol/L, ALM compound 0.5 μg/ml): No; Combination Index (Irinotecan 1 × 10^−7 mol/L, ALM compound 1.0 μg/ml): No; Combination Index (Irinotecan 1 × 10^−7 mol/L, ALM compound 5.0 μg/ml): No; Combination Index (Irinotecan 1 × 10^−8 mol/L, ALM compound 0.1 μg/ml): No; Combination Index (Irinotecan 1 × 10^−8 mol/L, ALM compound 0.5 μg/ml): 0.500; Combination Index (Irinotecan 1 × 10^−8 mol/L, ALM compound 1.0 μg/ml): No; Combination Index (Irinotecan 1 × 10^−8 mol/L, ALM compound 5.0 μg/ml): No; Combination Index (Irinotecan 1 × 10^−9 mol/L, ALM compound 0.1 μg/ml): No; Combination Index (Irinotecan 1 × 10^−9 mol/L, ALM compound 0.5 μg/ml): No; Combination Index (Irinotecan 1 × 10^−9 mol/L, ALM compound 1.0 μg/ml): No; Combination Index (Irinotecan 1 × 10^−9 mol/L, ALM compound 5.0 μg/ml): No; Combination Index (Irinotecan 1 × 10^−10 mol/L, ALM compound 0.1 μg/ml): 0.061; Combination Index (Irinotecan 1 × 10^−10 mol/L, ALM compound 0.5 μg/ml): No; Combination Index (Irinotecan 1 × 10^−10 mol/L, ALM compound 1.0 μg/ml): No; Combination Index (Irinotecan 1 × 10^−10 mol/L, ALM compound 5.0 μg/ml): No
